US10947188B2, “Small molecule ferroptosis inducers” (THE TRUSTEES OF COLUMBIA UNIVERSITY IN THE CITY OF NEW YORK, priority 2016, dated 2021)

Test system: HT-1080
Test: Modulatory profiling: Alamar Blue viability, lethal compound cotreated with death modulator (EC50, AUC); for AUC HT.BHA: reference of the scale not given here; for AUC HT.EGTA: reference of the scale not given here
Type: cell-based
Design: AUC, modulator HT.3MA / AUC, modulator HT.ALLN / AUC HT.ATA / AUC HT.ActD / AUC HT.BHA / AUC HT.BHT / AUC HT.BocD / AUC HT.CHX / AUC HT.Co2+ / AUC HT.DPQ / AUC HT.EGTA / AUC HT.Lmim / AUC HT.NAD+ / AUC HT.Nec-1 / AUC HT.SP600125 / AUC HT.TLCK / AUC HT.U0126: unit not given beside the values
Details: for AUC HT.ATA: HT-1080, modulator ATA; for AUC HT.ActD: HT-1080, modulator ActD; for AUC HT.BHA: HT-1080, modulator BHA; for AUC HT.BHT: HT-1080, modulator BHT; for AUC HT.BocD: HT-1080, modulator BocD; for AUC HT.CHX: HT-1080, modulator CHX; for AUC HT.Co2+: HT-1080, modulator Co2+; for AUC HT.CspA: HT-1080, modulator CspA; for AUC HT.DPQ: HT-1080, modulator DPQ; for AUC HT.EGTA: HT-1080, modulator EGTA; for AUC HT.Gd3+: HT-1080, modulator Gd3+; for AUC HT.LNAME: HT-1080, modulator LNAME; for AUC HT.Lmim: HT-1080, modulator Lmim; for AUC HT.NAD+: HT-1080, modulator NAD+; for AUC HT.NMMA: HT-1080, modulator NMMA; for AUC HT.Nec-1: HT-1080, modulator Nec-1; for AUC HT.Pepstatin: HT-1080, modulator Pepstatin; for AUC HT.SP600125: HT-1080, modulator SP600125; for AUC HT.TLCK: HT-1080, modulator TLCK; for AUC HT.U0126: HT-1080, modulator U0126; for HT.atoc (AUC) / HT.bCarotene (AUC) / HT.deferox (AUC) / HT.digoxin (AUC) / HT.trolox (AUC) / HT.zVAD (AUC): HT-1080; for HT.atoc (AUC): modulator atoc; for HT.bCarotene (AUC): modulator bCarotene; for HT.deferox (AUC): modulator deferox; for HT.digoxin (AUC): modulator digoxin; for HT.trolox (AUC): modulator trolox; for HT.zVAD (AUC): modulator zVAD; for AUC, modulator HT.3MA / AUC, modulator HT.ALLN: HT-1080 cells, modulatory profile value (AUC); for AUC, modulator HT.3MA: lethal compound cotreated with modulator 3MA; for AUC, modulator HT.ALLN: lethal compound cotreated with modulator ALLN

Compound | AUC HT.ATA | AUC HT.ActD | AUC HT.BHA | AUC HT.BHT | AUC HT.BocD | AUC HT.CHX | AUC HT.Co2+ | AUC HT.CspA | AUC HT.DPQ | AUC HT.EGTA | AUC HT.Gd3+ | AUC HT.LNAME | AUC HT.Lmim | AUC HT.NAD+ | AUC HT.NMMA | HT.atoc (AUC) | HT.bCarotene (AUC) | HT.deferox (AUC) | HT.digoxin (AUC) | HT.trolox (AUC) | further results
CC(C)C[C@H](NC(=O)[C@H](Cc1ccccc1)NC(=O)c1cnccn1)B(O)O [Bortezomib] | 0.0541 | −0.07229 | −0.04985 | −0.131 | 0.02874 | 0.02631 | 0.06445 | −0.2224 | 0.01079 | −0.006629 | −0.02823 | 0.009924 | 0.01347 | 0.139 | 0.01354 | 0.007023 | −0.01914 | −0.01672 | 0.07916 | −0.004183 | AUC HT.Nec-1: −0.06186; AUC HT.Pepstatin: −8.033E−05; AUC HT.SP600125: −0.03028; AUC HT.TLCK: 0.07195; AUC HT.U0126: −0.03187; HT.zVAD (AUC): 0.01074; AUC, modulator HT.3MA: −0.07171; AUC, modulator HT.ALLN: −0.08587
COc1ccccc1/C=C/C1(C(=O)NC2CCCC2)CC(=O)N1c1ccc(F)cc1 (stereo not drawn) [CIL1] | −0.0478 | −0.04057 | 0.02691 | −0.0849 | −0.01644 | 0.09163 | 0.2048 | −0.04542 | 0.04203 | −0.006602 | −0.03215 | 0.03977 | 0.08631 | 0.07889 | −0.0482 | 0.216 | −0.02846 | 0.08359 | −0.003809 | 0.02477 | AUC HT.Nec-1: 0.02294; AUC HT.Pepstatin: 0.001474; AUC HT.SP600125: −0.04919; AUC HT.TLCK: 0.04647; AUC HT.U0126: 0.1491; HT.zVAD (AUC): −0.0551; AUC, modulator HT.3MA: −0.001968; AUC, modulator HT.ALLN: 0.1053
CC1=CC(C)(C)Nc2ccc(OC(=O)c3ccco3)cc21 [CIL2] | 0.03084 | −0.005228 | −0.03767 | −0.1327 | 0.1395 | 0.1414 | −0.132 | 0.01224 | −0.003125 | −0.005627 | −0.02304 | 0.02625 | −0.03013 | 0.04925 | −0.03029 | 0.04757 | −0.02687 | 0.02963 | −0.01222 | −0.03094 | AUC HT.Nec-1: −0.01273; AUC HT.Pepstatin: 0.008816; AUC HT.SP600125: −0.003684; AUC HT.TLCK: 0.02037; AUC HT.U0126: 0.02089; HT.zVAD (AUC): −0.02828; AUC, modulator HT.3MA: 0.07178; AUC, modulator HT.ALLN: 0.05292
CC1CC(C)(C)Nc2ccc(OC(=O)c3ccco3)cc21 (stereo not drawn) [CIL4] | 0.02806 | −0.001463 | −0.00931 | −0.02212 | 0.1272 | 0.1096 | −0.144 | −0.04696 | 0.007359 | 0.01533 | −0.009953 | 0.01005 | −0.01928 | −0.01381 | −0.007501 | 0.02362 | 0.001026 | −3.785E−05 | −0.02389 | −0.0201 | AUC HT.Nec-1: 0.002499; AUC HT.Pepstatin: 0.00928; AUC HT.SP600125: −0.006297; AUC HT.TLCK: 0.0172; AUC HT.U0126: 0.0005624; HT.zVAD (AUC): 0.0146; AUC, modulator HT.3MA: 0.02219; AUC, modulator HT.ALLN: 0.02482
OCCNCC(O)Cn1c2ccc(Br)cc2c2cc(Br)ccc21 (stereo not drawn) [CIL7] | −0.01671 | −0.01197 | −0.06352 | −0.103 | 0.07799 | 0.0511 | 0.1062 | −0.06441 | 0.005254 | 0.006456 | −0.02982 | 0.01998 | −0.002674 | 0.07707 | −0.02442 | 0.02896 | −0.0174 | −0.05071 | 0.003869 | −0.006321 | AUC HT.Nec-1: 0.007138; AUC HT.Pepstatin: −0.00124; AUC HT.SP600125: −0.04155; AUC HT.TLCK: −0.01113; AUC HT.U0126: 0.01556; HT.zVAD (AUC): −0.03773; AUC, modulator HT.3MA: −0.004626; AUC, modulator HT.ALLN: 0.1136
COc1ccc(Nc2ccc3c(c2)=NC2(CCCCC2)[N+]=3[O-])cc1 [CIL9] | −0.003144 | −0.064 | −0.04477 | −0.1803 | −0.02376 | 0.07227 | 0.01754 | −0.03079 | −0.003317 | −0.006848 | −0.04358 | 0.02124 | −0.05469 | 0.02617 | −0.03733 | 0.05157 | −0.006502 | 0.05678 | −0.01984 | −0.03599 | AUC HT.Nec-1: 0.02133; AUC HT.Pepstatin: −0.002188; AUC HT.SP600125: 0.01016; AUC HT.TLCK: 0.005514; AUC HT.U0126: 0.03915; HT.zVAD (AUC): −0.00166; AUC, modulator HT.3MA: 0.04492; AUC, modulator HT.ALLN: −0.02077
CC(C)(C)C1CCc2c(sc(NC(=O)CN3CCNCC3)c2C(N)=O)C1 (stereo not drawn) [CIL10] | 0.01743 | −0.01865 | −0.02863 | −0.08663 | 0.1385 | 0.05132 | 0.1226 | 0.004872 | 0.004305 | −0.007776 | −0.02788 | 0.02616 | −0.02065 | 0.04087 | −0.009286 | 0.1034 | −0.01201 | −0.004319 | 0.01443 | −0.006674 | AUC HT.Nec-1: 0.03698; AUC HT.Pepstatin: −0.01087; AUC HT.SP600125: −0.009227; AUC HT.TLCK: −0.001631; AUC HT.U0126: 0.01126; HT.zVAD (AUC): −0.01286; AUC, modulator HT.3MA: −0.01982; AUC, modulator HT.ALLN: 0.1067
Cc1cccnc1Nc1nc(-c2ccccn2)cs1 [CIL13] | 0.04672 | −0.04327 | −0.06288 | −0.104 | 0.09941 | 0.03999 | 0.2924 | 0.06243 | −0.01515 | 0.08353 | −0.03072 | −0.07962 | −0.06102 | −0.04462 | −0.04118 | 0.1029 | 0.01006 | 0.05411 | 0.03512 | −0.03975 | HT.zVAD (AUC): 0.01164; AUC, modulator HT.3MA: 0.02535; AUC, modulator HT.ALLN: 0.01646; effect of cobalt (II) on lethality (modulatory profiles, CoCl2 supplementation): inhibited by cobalt (II)
COc1cccc(-n2nnnc2S(C)(=O)=O)c1 [CIL16] | 0.003965 | 0.01875 | −0.05937 | −0.1721 | 0.1414 | 0.08543 | 0.155 | 0.008389 | −0.02205 | −0.0002723 | −0.0407 | 0.01974 | −0.05546 | 0.05126 | −0.03154 | 0.1025 | −0.01322 | 0.05919 | −0.01884 | −0.01524 | HT.zVAD (AUC): 0.005482; AUC, modulator HT.3MA: 0.02993; AUC, modulator HT.ALLN: −0.03286
C[S+]([O-])c1nc(-c2ccc(Br)cc2)cc(-c2ccccc2)c1C#N (stereo not drawn) [CIL17] | −0.0157 | −0.03982 | −0.02052 | −0.138 | 0.0313 | 0.06579 | −0.008436 | −0.03354 | −0.02303 | 0.001857 | −0.04318 | 0.02242 | −0.0132 | 0.04423 | −0.02639 | 0.145 | −0.005211 | 0.02894 | −0.003189 | 0.004595 | HT.zVAD (AUC): 0.008536; AUC, modulator HT.3MA: 0.01558; AUC, modulator HT.ALLN: 0.03631
CCCCNc1cc(C)nc(NCc2ccccc2)n1 [CIL18] | 0.001415 | 0.0184 | −0.08703 | −0.1394 | 0.06607 | 0.1179 | 0.1598 | −0.04827 | −0.01276 | −0.009461 | −0.03302 | 0.01329 | −0.004987 | 0.09493 | −0.02918 | 0.1295 | −0.0001406 | −0.009951 | −0.004198 | −0.01205 | HT.zVAD (AUC): 0.0101; AUC, modulator HT.3MA: 0.01461; AUC, modulator HT.ALLN: 0.07303
O=c1c(N2CCCC2)c(Cl)cnn1-c1ccccc1 [CIL20] | −0.001276 | −0.006608 | 0.0001715 | −0.08075 | 0.01009 | 0.1212 | 0.1205 | −0.05648 | −0.03779 | −0.01805 | −0.02607 | 0.01703 | 0.002914 | 0.05985 | −0.0209 | 0.0292 | 0.008618 | 0.03912 | 0.01851 | 0.03002 | HT.zVAD (AUC): −0.02079; AUC, modulator HT.3MA: 0.004881; AUC, modulator HT.ALLN: 0.09673
